The test system of one assay is MCF-7. Briefly: growth inhibition of human MCF-7 breast carcinoma cell line, crystal-violet assay. The class given is cell-based. From the text: (§1) In Vitro Activity of Epothilone Derivatives on Human Tumor Cell Lines
(§2) a) IC50 values [nM] for the growth inhibition of human MCF-7-breast and multi-drug-resistant NCl/ADR-carcinoma cell lines of epothilone derivatives with 13Z-unsaturated in the crystal-violet assay in comparison to Taxol.
(§3) b) IC50 values [nM] for the growth inhibition of human MCF-7-breast- and multi-drug-resistant NCl/ADR carcinoma cell lines of epothilone derivative with 13,14-α-epoxide, which was formed from the 13-Z-configured double bond in the crystal-violet assay in comparison to Taxol.
(§4) c) IC50 values [nM] for the growth inhibition of human MCF-7-breast- and multi-drug-resistant NCl/ADR-carcinoma cell lines of epothilone derivatives with 13,14-epoxide, which was formed from the 13-E-configured double bond, in a crystal-violet assay in comparison to Taxol.

For a further assay, the system named is NCl/ADR. As to the kind of experiment: growth inhibition of multi-drug-resistant NCl/ADR carcinoma cell line, crystal-violet assay. The class given is cell-based, human. To be noted: for IC50: crystal-violet assay, multi-drug-resistant line; for Selectivity = IC50-(NCl/ADR): IC50 (MCF-7): Table 1, ratio NCl/ADR to MCF-7.
Description: as §1, §2, §3, §4

The mark [1] stands for this setting: Table 3, 13,14-epoxide formed from the 13-E-configured double bond.
The mark [2] stands for this setting: Table 3, ratio NCl/ADR to MCF-7.
[3] abbreviates: Table 1, epothilone derivatives with 13Z-unsaturated.
The mark [4] stands for this setting: Table 2, 13,14-α-epoxide formed from the 13-Z-configured double bond.
The mark [5] stands for this setting: Table 2, ratio NCl/ADR to MCF-7.

SMILES strings stand for the structures. A value given as a limit tells only on which side of the number the result lay.

For the compound `C#CCC[C@H]1C(=O)C(C)(C)[C@@H](O)CC(=O)O[C@H](/C(C)=C/c2ccccn2)C[C@@H]2OC2(C)CCC[C@H](C)[C@@H]1O` (single isomer, unassigned) [Example 6A or B], the half-inhibitory concentration (IC50) in the assay with MCF-7 (setting [1]) was 4.3 nM; in the assay with NCl/ADR (setting [1]), 68 nM. Also, the “Selectivity = IC50-(NCl/ADR): IC50-(MCF-7)” value with NCl/ADR (setting [2]) was determined as 15.8.

As to `C=CC[C@H]1C(=O)C(C)(C)[C@@H](O)CC(=O)O[C@H](/C(C)=C/c2csc(C)n2)CC2O[C@@]2(C)CCC[C@H](C)[C@@H]1O` (single isomer, unassigned) [Example 12B or A], the IC50 in the assay with MCF-7 (setting [1]) stood at 4.8 nM; in the assay with NCl/ADR (setting [1]), 53 nM. The “Selectivity = IC50-(NCl/ADR): IC50-(MCF-7)” value with NCl/ADR (setting [2]) came to 11.0.

With `C#CCC[C@H]1C(=O)C(C)(C)[C@@H](O)CC(=O)O[C@H](/C(C)=C/c2ccccn2)C/C=C(/C)CCC[C@H](C)[C@@H]1O` [Example 1, (4S,7R,8S,9S,13Z,16S(E))-4,8-Dihydroxy-16-(1-methyl-2-(2-pyridyl)ethenyl)-1-oxa-5,5,9,13-tetramethyl-7-(but-3-in-1-yl)-cyclohexadec-13-ene-2,6-dione], the IC50 with MCF-7 (setting [3]) worked out at 30 nM; in the assay with NCl/ADR (setting [3]), 75 nM. In the assay with NCl/ADR, the “Selectivity = IC50-(NCl/ADR): IC50 (MCF-7)” value was found to be 2.5.

Consider `C=CCC[C@H]1C(=O)C(C)(C)[C@@H](O)CC(=O)O[C@H](/C(C)=C/c2ccccn2)C/C=C(/C)CCC[C@H](C)[C@@H]1O` [Example 2, (4S,7R,8S,9S,13Z,16S(E))-4,8-Dihydroxy-16-(1-methyl-2-(2-pyridyl)ethenyl)-1-oxa-5,5,9,13-tetramethyl-7-(but-3-en-1-yl)-cyclohexadec-13-ene-2,6-dione], for which the IC50 in the assay with MCF-7 (setting [3]) stood at 25 nM; with NCl/ADR (setting [3]) it was 70 nM. Besides, the “Selectivity = IC50-(NCl/ADR): IC50 (MCF-7)” value in the assay with NCl/ADR stood at 2.8.

`C#CCC[C@H]1C(=O)C(C)(C)[C@@H](O)CC(=O)O[C@H](/C(C)=C/c2ccccn2)C[C@@H]2O[C@]2(C)CCC[C@H](C)[C@@H]1O` [Example 4A, (1S,3S(E),7S,10R,11S,12S,16R)-7,11-Dihydroxy-10-(but-3-in-1-yl)-3-(1-methyl-2-(2-pyridyl)ethenyl)-8,8,12,16-tetramethyl-4,17-dioxabicyclo[14.1.0]heptadecane-5,9-dione]: the IC50 stood at 1.3 nM in the assay on MCF-7 (setting [4]) and 9.1 nM with NCl/ADR (setting [4]). The “Selectivity = IC50-(NCl/ADR): IC50-(MCF-7)” value in the assay on NCl/ADR (setting [5]) turned out to be 7.0.

Take `C=CCC[C@H]1C(=O)C(C)(C)[C@@H](O)CC(=O)O[C@H](/C(C)=C/c2ccccn2)C[C@@H]2O[C@]2(C)CCC[C@H](C)[C@@H]1O` [Example 5A, (1S,3S(E),7S,10R,11S,12S,16R)-7,11-Dihydroxy-10-(but-3-en-1-yl)-3-(1-methyl-2-(2-pyridyl)ethenyl)-8,8,12,16-tetramethyl-4,17-dioxabicyclo[14.1.0]heptadecane-5,9-dione]: the figures for the IC50 with MCF-7 (setting [4]) and with NCl/ADR (setting [4]) were 3.1 nM and 3.8 nM, respectively. In the assay on NCl/ADR (setting [5]), the “Selectivity = IC50-(NCl/ADR): IC50-(MCF-7)” value is on record as 1.2.

Take `C=CC[C@H]1C(=O)C(C)(C)[C@@H](O)CC(=O)O[C@H](/C(C)=C/c2csc(C)n2)C/C=C(/C)CCC[C@H](C)[C@@H]1O` [Example 9, (4S,7R,8S,9S,13Z,16S(E))-4,8-Dihydroxy-16-(1-methyl-2-(2-methylthiazol-4-yl)ethenyl)-1-oxa-5,5,9,13-tetramethyl-7-(prop-2-en-1-yl)-cyclohexadec-13-ene-2,6-dione]: the IC50 in the assay on MCF-7 (setting [3]) worked out at 17 nM; with NCl/ADR (setting [3]) it was 41 nM. Besides, in the assay on NCl/ADR, the “Selectivity = IC50-(NCl/ADR): IC50 (MCF-7)” value is 2.4.

As for `C=CC[C@H]1C(=O)C(C)(C)[C@@H](O)CC(=O)O[C@H](/C(C)=C/c2csc(C)n2)C[C@@H]2O[C@]2(C)CCC[C@H](C)[C@@H]1O` [Example 10A, (1S,3S(E),7S,10R,11S,12S,16R)-7,11-Dihydroxy-10-(prop-2-en-1-yl)-3-(1-methyl-2-(2-methylthiazol-4-yl)ethenyl)-8,8,12,16-tetramethyl-4,17-dioxabicyclo[14.1.0]heptadecane-5,9-dione], the results for the concentration for half-maximal inhibition (IC50) in the assay on MCF-7 (setting [4]) and in the assay with NCl/ADR (setting [4]) were 1.2 nM and 3.6 nM, respectively. For the same compound, in the assay with NCl/ADR (setting [5]), the “Selectivity = IC50-(NCl/ADR): IC50-(MCF-7)” value is listed as 3.0.

For `C=CC[C@H]1C(=O)C(C)(C)[C@@H](O)CC(=O)O[C@H](/C(C)=C/c2csc(C)n2)C[C@H]2O[C@]2(C)CCC[C@H](C)[C@@H]1O` [Example 12A or B, (1R,3S(E),7S,10R,11S,12S,16R)-7,11-Dihydroxy-10-(prop-2-en-1-yl)-3-(1-methyl-2-(2-methylthiazol-4-yl)ethenyl)-8,8,12,16-tetramethyl-4,17-dioxabicyclo[14.1.0]heptadecane-5,9-dione], the IC50 amounted to 40 nM in the assay with MCF-7 (setting [1]) and 61 nM with NCl/ADR (setting [1]). The “Selectivity = IC50-(NCl/ADR): IC50-(MCF-7)” value with NCl/ADR (setting [2]) is recorded as 1.5.

Turning to `C#CC[C@H]1C(=O)C(C)(C)[C@@H](O)CC(=O)O[C@H](/C(C)=C/c2ccccn2)C/C=C(/C)CCC[C@H](C)[C@@H]1O` [Example 13, (4S,7R,8S,9S,13Z,16S(E))-4,8-Dihydroxy-16-(1-methyl-2-(2-pyridyl)ethenyl)-1-oxa-5,5,9,13-tetramethyl-7-(prop-2-in-1-yl)-cyclohexadec-13-ene-2,6-dione], the IC50 in the assay with MCF-7 (setting [3]) is 34 nM.

As to `C=CC[C@H]1C(=O)C(C)(C)[C@@H](O)CC(=O)O[C@H](/C(C)=C/c2ccccn2)C/C=C(/C)CCC[C@H](C)[C@@H]1O` [Example 15, (4S,7R,8S,9S,13Z,16S(E))-4,8-Dihydroxy-16-(1-methyl-2-(2-pyridyl)ethenyl)-1-oxa-5,5,9,13-tetramethyl-7-(prop-2-en-1-yl)-cyclohexadec-13-ene-2,6-dione], the IC50 in the assay on MCF-7 (setting [3]) turned out to be 25 nM.

The compound `C=CC[C@H]1C(=O)C(C)(C)[C@@H](O)CC(=O)O[C@H](c2ccc3oc(C)nc3c2)C/C=C(/C)CCC[C@H](C)[C@@H]1O` [Example 21, (4S,7R,8S,9S,13Z,16S(E))-4,8-Dihydroxy-16-(2-methyl-benzoxazol-5-yl)-1-oxa-5,5,9,13-tetramethyl-7-(prop-2-en-1-yl)-cyclohexadec-13-ene-2,6-dione] displayed an IC50 with MCF-7 (setting [3]) of 32 nM. The IC50 values of the last two compounds are within 1.5-fold of each other.

In the case of `C#CC[C@H]1C(=O)C(C)(C)[C@@H](O)CC(=O)O[C@H](/C(F)=C/c2csc(C)n2)C/C=C(/C)CCC[C@H](C)[C@@H]1O` [Example 23, (4S,7R,8S,9S,13Z,16S(Z))-4,8-Dihydroxy-16-(1-fluoro-2-(2-methylthiazol-4-yl)ethenyl)-7-(prop-2-in-1-yl)-1-oxa-5,5,9,13-tetramethyl-cyclohexadec-13-ene-2,6-dione], the IC50 in the assay with MCF-7 (setting [3]) amounted to 11 nM; in the assay on NCl/ADR (setting [3]), 62 nM. The “Selectivity = IC50-(NCl/ADR): IC50 (MCF-7)” value in the assay with NCl/ADR was 5.6.

In the case of `C#CC[C@H]1C(=O)C(C)(C)[C@@H](O)CC(=O)O[C@H](/C(F)=C/c2csc(C)n2)C[C@@H]2O[C@]2(C)CCC[C@H](C)[C@@H]1O` [Example 25, (1S,3S(Z),7S,10R,11S,12S,16R)-7,11-Dihydroxy-3-(1-fluoro-2-(2-methyl-4-thiazolyl)ethenyl)-10-(prop-2-in-1-yl)-8,8,12,16-tetramethyl-4,17-dioxabicyclo[14.1.0]heptadecane-5,9-dione], the results for the IC50 with MCF-7 (setting [4]) and in the assay with NCl/ADR (setting [4]) were 2.3 nM and 11 nM, respectively. Besides, in the assay with NCl/ADR (setting [5]), the “Selectivity = IC50-(NCl/ADR): IC50-(MCF-7)” value is recorded as 4.8.

For `C#CC[C@H]1C(=O)C(C)(C)[C@@H](O)CC(=O)O[C@H](/C(F)=C/c2csc(C)n2)C[C@@H]2O[C@@]2(C)CCC[C@H](C)[C@@H]1O` [Example 26A or B, (1S,3S(Z),7S,10R,11S,12S,16S)-7,11-Dihydroxy-3-(1-fluoro-2-(2-methyl-4-thiazolyl)ethenyl)-10-(prop-2-in-1-yl)-8,8,12,16-tetramethyl-4,17-dioxabicyclo[14.1.0]heptadecane-5,9-dione], the IC50 in the assay on MCF-7 (setting [1]) amounted to 18 nM; in the assay with NCl/ADR (setting [1]), 60 nM. Further, the “Selectivity = IC50-(NCl/ADR): IC50-(MCF-7)” value in the assay on NCl/ADR (setting [2]) was 3.3.

Consider `C#CC[C@H]1C(=O)C(C)(C)[C@@H](O)CC(=O)O[C@H](/C(F)=C/c2coc(C)n2)C/C=C(/C)CCC[C@H](C)[C@@H]1O` [Example 27, (4S,7R,8S,9S,13Z,16S(Z))-4,8-Dihydroxy-16-(1-fluoro-2-(2-methyloxazol-4-yl)ethenyl)-7-(prop-2-in-1-yl)-1-oxa-5,5,9,13-tetramethyl-cyclohexadec-13-ene-2,6-dione], for which the figures for the IC50 with MCF-7 (setting [3]) and in the assay on NCl/ADR (setting [3]) were 25 nM and 41 nM, respectively. The “Selectivity = IC50-(NCl/ADR): IC50 (MCF-7)” value in the assay with NCl/ADR worked out at 1.6.

On to `CC(=O)O[C@H]1C(=O)[C@@]2(C)[C@H]([C@H](OC(=O)c3ccccc3)[C@]3(O)C[C@H](OC(=O)[C@H](O)[C@@H](NC(=O)c4ccccc4)c4ccccc4)C(C)=C1C3(C)C)[C@]1(OC(C)=O)CO[C@@H]1C[C@@H]2O` [Taxol, reference compound], for which the concentration for half-maximal inhibition (IC50) in the assay with MCF-7 (Homo sapiens, MCF7, Table 1, epothilone derivatives with 13Z-unsaturated) was 3.5 nM; in the assay on NCl/ADR (Homo sapiens, Table 1, epothilone derivatives with 13Z-unsaturated), > 100 nM; in the assay on NCl/ADR (setting [4]), > 100 nM; in the assay on NCl/ADR (setting [1]), > 100 nM. Besides, the “Selectivity = IC50-(NCl/ADR): IC50 (MCF-7)” value with NCl/ADR is >28.6. Also, the “Selectivity = IC50-(NCl/ADR): IC50-(MCF-7)” value with NCl/ADR (setting [5]) and in the assay on NCl/ADR (setting [2]) was >29 each time. Further, the “action on the multi-drug-resistant cell line NCl/ADR” value with NCl/ADR (in words, in comparison to Taxol) is “not exhibited”.

The IC50 is the point on the concentration scale where inhibition reaches its midpoint.

Values taken from patent US20100168179A1, “6-ALKENYL-, 6-ALKINYL- AND 6-EPOXY-EPOTHILONE DERIVATIVES, PROCESS FOR THEIR PRODUCTION, AND THEIR USE IN PHARMACEUTICAL PREPARATIONS” (priority 1999, published 2010).
